# Reference: patent US8333970B2, “Methods of monitoring the efficacy of anti-CD40 antibodies in treating a subject having an inflammatory or autoimmune disease” (Novartis AG, priority 2005, dated 2012)
# How the values were obtained:
# [1] = tested on: cancer cells from NHL and CLL patients; assay: In vitro CD40 ligand-mediated proliferation of patient cancer cells; assay type: cell-based, human
# Description: 4, 2003, Nov. 26, 2003, and Apr. 27, 2004, and assigned U.S. Patent Application Nos. 60/517,337 , 60/525,579, and 60/565,710, respectively, and International Patent Application No. PCT/US2004/037152, also entitled “Antagonist Anti-CD40 Monoclonal Antibodies and Methods for Their Use,” filed Nov. 4, 2004; the contents of each of which are herein incorporated by reference in their entirety.
# monocytes = assay: CD40L-induced cytokine secretion, Meso Scale Discovery multi-array; assay type: cell-based, human; conditions: 24 hours
# Description: (§1) Cells (1×10^5 cells per well) were cultured in a 96-well plate in the presence or absence of CD40L ([…], formaldehyde fixed CHO cells, 2×10^5 per well). […] Production of hIL-6, hIL-8, hIL-10, hTNF-α; hGM-CSF, hIL-1b, hIL-12p70, MCP-1, and MIP-1β beta was measured by Meso Scale Discovery® multi-array system (Meso Scale Discovery, Gaithersburg, Md.).
# normal B cells = assay: as above; assay type: cell-based, human; conditions: 24 hours; for % inhibition of CD40L-induced MCP-1 secretion / % inhibition of CD40L-induced MIP-1β secretion / % inhibition of CD40L-induced hIL-6 secretion / % inhibition of CD40L-induced hIL-8 secretion / % inhibition of CD40L-induced hIL-10 secretion / % inhibition of CD40L-induced hTNF-α secretion: normal B cells
# Description: as §1
# soluble CD40 = soluble CD40 (Homo sapiens, UniProt P25942); assay: ELISA-type assay, binding to soluble CD40; conditions: ELISA-type assays
# Description: 2, 2000, and PCT International Application No. PCT/US01/30857, also titled “Human Anti-CD40 Antibodies,” filed Oct. 2, 2001, both of which are herein incorporated by reference in their entirety.
# soluble CD40, sequence (P25942 21-193 limits assumed): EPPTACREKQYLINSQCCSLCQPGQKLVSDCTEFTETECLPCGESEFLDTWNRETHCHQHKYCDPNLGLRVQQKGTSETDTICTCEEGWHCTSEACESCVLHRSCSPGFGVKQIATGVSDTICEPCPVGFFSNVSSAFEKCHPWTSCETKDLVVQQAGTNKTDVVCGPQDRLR
substance,measurement,setting,value
"CHIR-12.12: fully human anti-CD40 monoclonal antibody of the IgG1 isotype, hybridoma 153.8E2.D10.D6.12.12, ATCC PTA-5543, SEQ ID NO:2 and 4",CD40 ligand-mediated proliferation of cancer cells,[1],inhibiting in vitro CD40 ligand-mediated proliferation of cancer cells from NHL and CLL patients
same,"CD40L-induced production of hIL-10, hTNF-α, hIL-8, hIL-6, MCP-1 and MIP-1β","monocytes; monocytes (n=1), 10 μg/ml",inhibited CD40L-induced monocyte production
same,% inhibition of CD40L-induced MCP-1 secretion,"monocytes; monocytes, Donor 1, 10 μg/ml",92.6%
same,% inhibition of CD40L-induced MIP-1β secretion,"monocytes; monocytes, Donor 1, 10 μg/ml",32.4%
same,% inhibition of CD40L-induced hIL-6 secretion,"monocytes; monocytes, Donor 1, 10 μg/ml",64.9%
same,% inhibition of CD40L-induced hIL-8 secretion,"monocytes; monocytes, Donor 1, 10 μg/ml",43.7%
same,% inhibition of CD40L-induced hIL-10 secretion,"monocytes; monocytes, Donor 1, 10 μg/ml",58.5%
same,% inhibition of CD40L-induced hTNF-α secretion,"monocytes; monocytes, Donor 1, 10 μg/ml",60.1%
same,cytokine production with antibody alone (agonistic activity),"normal B cells; absence of CD40L, 10 μg/ml",did not produce any of the cytokines above background levels
same,CD40L-induced production of all cytokines,"normal B cells; normal B cells (n=3), 10 μg/ml",inhibited production of all cytokines
same,% inhibition of CD40L-induced MCP-1 secretion,"normal B cells; Donor 1, 10 μg/ml",55.3%
same,% inhibition of CD40L-induced MIP-1β secretion,"normal B cells; Donor 1, 10 μg/ml",54.4%
same,% inhibition of CD40L-induced hIL-6 secretion,"normal B cells; Donor 1, 10 μg/ml",92.2%
same,% inhibition of CD40L-induced hIL-8 secretion,"normal B cells; Donor 1, 10 μg/ml",98.2%
same,% inhibition of CD40L-induced hIL-10 secretion,"normal B cells; Donor 1, 10 μg/ml",90.5%
same,% inhibition of CD40L-induced hTNF-α secretion,"normal B cells; Donor 1, 10 μg/ml",92.8%
same,% inhibition of CD40L-induced MIP-1β secretion,"normal B cells; Donor 2, 10 μg/ml",92%
same,% inhibition of CD40L-induced hIL-6 secretion,"normal B cells; Donor 2, 10 μg/ml",99.9%
same,% inhibition of CD40L-induced hIL-8 secretion,"normal B cells; Donor 2, 10 μg/ml",84.7%
same,% inhibition of CD40L-induced hTNF-α secretion,"normal B cells; Donor 2, 10 μg/ml",97.4%
same,% inhibition of CD40L-induced MCP-1 secretion,"normal B cells; Donor 3, 10 μg/ml",25.7%
same,% inhibition of CD40L-induced MIP-1β secretion,"normal B cells; Donor 3, 10 μg/ml",92.5%
same,% inhibition of CD40L-induced hIL-6 secretion,"normal B cells; Donor 3, 10 μg/ml",99.3%
same,% inhibition of CD40L-induced hIL-8 secretion,"normal B cells; Donor 3, 10 μg/ml",99.5%
same,% inhibition of CD40L-induced hIL-10 secretion,"normal B cells; Donor 3, 10 μg/ml",94.4%
same,% inhibition of CD40L-induced hTNF-α secretion,"normal B cells; Donor 3, 10 μg/ml",98.5%
same,binding to soluble CD40,soluble CD40,bind soluble CD40
